The text below walks through data of patent US4792545A, “Boholmycin antibiotic” (Bristol-Myers Company, priority 1986, dated 1988).

Converted amounts (≈) assume the structure as drawn. Read-outs that look alike come from different tables or passages of the source. Some results are limits rather than exact numbers.

The test system of one assay is E. coli D64. The assay is described as follows: stimulating growth of streptomycin-dependent E. coli D64 (paper disc). It counts as cell-based. The following applies: for Growth zone vs E. coli D64 / Growth zone vs E. coli D64, hazy growth zone: 37° C., 45 hours; for Growth zone vs E. coli D64, hazy growth zone: value in parentheses. The text has this:
The results are shown in Table 4 wherein the term "boholmycin" is used for short in referring to boholmycin dihydrochloride tetrahydrate.

Another assay relates to B. subtilis PCI-219. Put plainly: inhibiting growth of B. subtilis PCI-219 (paper disc). It counts as cell-based. Particulars: for Inhibition zone vs B. subtilis PCI-219: 28° C., 18 hours. How it is done: Boholmycin dihydrochloride tetrahydrate was tested in comparison with streptomycin, glebomycin, myomycin B and kanamycin in respect to stimulating growth of E. coli D64 and in respect to inhibiting growth of B. subtilis PCI-219. The results are shown in Table 4 wherein the term "boholmycin" is used for short in referring to boholmycin dihydrochloride tetrahydrate.
*^1 8 mm paper disc containing 35 μl of test solution
*^3 Incubation at 28° C. for 18 hours

For a further assay, the system named is S. aureus 209P. The assay is described as follows: MIC by serial agar dilution. It counts as cell-based. Particulars: Staphylococcus aureus, 209P.
The subject of assay [1] is S. aureus Smith. The assay is described as follows: MIC by serial agar dilution. Type of assay: cell-based. Particulars: Staphylococcus aureus. On the technique in general: In agar dilution, organisms are placed on agar that contains the substance at set levels.
The subject of another assay is S. aureus A20239. Put plainly: MIC by serial agar dilution. Type of assay: cell-based. The following applies: Staphylococcus aureus, A20239.
A further assay relates to M. luteus PCI-1001. Put plainly: MIC by serial agar dilution. It counts as cell-based. The following applies: Micrococcus luteus, PCI1001.
The subject of the next assay is M. flavus D-12. The assay is described as follows: MIC by serial agar dilution. Type of assay: cell-based. The following applies: Micrococcus flavus, D12, medium A: Nutrient agar, read-out: MIC.
A further assay has as its system B. subtilis ATCC6633. Put plainly: MIC by serial agar dilution. Type of assay: cell-based. The following applies: Bacillus subtilis, medium A: Nutrient agar, read-out: MIC.
A further assay relates to B. anthracis IID-115. The assay is described as follows: microbe, parasite or virus in culture. It counts as cell-based. Particulars: Bacillus anthracis, IID115.
A further assay concerns E. coli NIHJ. Put plainly: MIC by serial agar dilution. Type of assay: cell-based. Particulars: Escherichia coli, medium A: Nutrient agar, read-out: MIC.
Assay [2] relates to E. coli Juhl. The assay is described as follows: MIC by serial agar dilution. Type of assay: cell-based. Particulars: Escherichia coli, medium A: Nutrient agar, read-out: MIC.
Another assay relates to E. coli K-12. Put plainly: MIC by serial agar dilution. Particulars: Escherichia coli, K12, medium A: Nutrient agar, read-out: MIC. Type of assay: cell-based.
For the next assay, the system named is E. coli A20664. The assay is described as follows: MIC by serial agar dilution. Particulars: Escherichia coli; E. coli A20664, kanamycin resistant strain; medium A: Nutrient agar; read-out: MIC. Type of assay: cell-based.
The subject of the next assay is E. coli JR35/c600. Put plainly: MIC by serial agar dilution. Type of assay: cell-based. The following applies: Escherichia coli, JR35/C600.
For assay [3], the system named is K. pneumoniae D-11. The assay is described as follows: MIC by serial agar dilution. It counts as cell-based. Particulars: Klebsiella pneumoniae, D11, medium A: Nutrient agar, read-out: MIC.
The next assay relates to K. pneumoniae A9678. The assay is described as follows: MIC by serial agar dilution. Type of assay: cell-based. The following applies: Klebsiella pneumoniae, medium A: Nutrient agar, read-out: MIC.
The test system of a further assay is E. cloacae A20364. The assay is described as follows: MIC by serial agar dilution. It counts as cell-based. Particulars: Enterobacter cloacae; E. cloacae A20364, kanamycin resistant strain; medium A: Nutrient agar; read-out: MIC.
In another assay the test system is E. cloacae A21006. Put plainly: MIC by serial agar dilution. Type of assay: cell-based. The following applies: Enterobacter cloacae; E. cloacae A21006, kanamycin resistant strain; medium A: Nutrient agar; read-out: MIC.
The test system of another assay is P. mirabilis A9554. The assay is described as follows: MIC by serial agar dilution. It counts as cell-based. Particulars: Proteus mirabilis, medium A: Nutrient agar, read-out: MIC.
Another assay has as its system P. vulgaris A9436. Put plainly: MIC by serial agar dilution. Type of assay: cell-based. The following applies: Proteus vulgaris, medium A: Nutrient agar, read-out: MIC.
The next assay concerns S. marcescens A20019. Put plainly: MIC by serial agar dilution. It counts as cell-based. Particulars: Serratia marcescens, A20019.
The next assay has as its system S. marcescens A22302. The assay is described as follows: MIC by serial agar dilution. Particulars: Serratia marcescens, A22302. Type of assay: cell-based.
The test system of a further assay is P. aeruginosa A9930. Put plainly: MIC by serial agar dilution. Type of assay: cell-based. Particulars: Pseudomonas aeruginosa, medium A: Nutrient agar, read-out: MIC.
Another assay has as its system P. aeruginosa A9843A. Put plainly: microbe, parasite or virus in culture. Type of assay: cell-based. Particulars: Pseudomonas aeruginosa, A9843A.
The next assay relates to P. aeruginosa A20601. Put plainly: MIC by serial agar dilution. It counts as cell-based. Particulars: Pseudomonas aeruginosa; P. aeruginosa A20601, kanamycin resistant strain; medium A: Nutrient agar; read-out: MIC.
A further assay has as its system Mycobacterium 607 D87. Put plainly: MIC by serial agar dilution. It counts as cell-based. Particulars: Mycobacterium, 607D87.
The next assay deals with Mycobacterium 607 D46. Put plainly: MIC by serial agar dilution. The following applies: Mycobacterium 607 D46, kanamycin resistant strain; medium B: No. 1001 medium; read-out: MIC. It counts as cell-based.
Another assay concerns Mycobacterium phlei. The assay is described as follows: MIC by serial agar dilution. It counts as cell-based. The following applies: Mycolicibacterium phlei.
Another assay relates to Mycobacterium ranae. The assay is described as follows: MIC by serial agar dilution. It counts as cell-based. Particulars: Mycobacterium.
The subject of assay [4] is S. aureus Smith. The assay is described as follows: in vivo efficacy in mice against experimental infection. Particulars: Staphylococcus aureus, im, 120 h, read-out: PD50.
The test system of assay [5] is E. coli Juhl. Described as above. Particulars: Escherichia coli, im, 120 h, read-out: PD50.
Assay [6] concerns K. pneumoniae D-11. The assay is described as above. The following applies: Klebsiella pneumoniae, D11, im, 120 h, read-out: PD50.
The mark [7] stands for this setting: Bacillus subtilis, PCI219, 18 h, read-out: Inhibition zone vs B. subtilis PCI-219.

Consider `CN[C@@H]1[C@H](O[C@H]2[C@H](O[C@H]3[C@H](O)[C@@H](O)[C@H](OC(N)=O)[C@@H](O)[C@@H]3N=C(N)N)O[C@@H](C)[C@]2(O)CO)O[C@@H](CO)[C@H](O)[C@H]1O` [glebomycin], for which the “Growth zone vs E. coli D64” value amounted to 15 mm in the assay on E. coli D64 (1 mg/ml) and 27 mm in the assay with E. coli D64 (4 mg/ml). For the same compound, the “Inhibition zone vs B. subtilis PCI-219” value in the assay with B. subtilis PCI-219 (1 mg/ml) stood at 30 mm; in the assay with B. subtilis PCI-219 (4 mg/ml) it was 33 mm.

As to `NC[C@H]1O[C@H](O[C@H]2[C@H](O)[C@@H](O[C@H]3O[C@H](CO)[C@@H](O)[C@H](N)[C@H]3O)[C@H](N)C[C@@H]2N)[C@H](O)[C@@H](O)[C@@H]1O` [kanamycin], the MIC against S. aureus 209P was 0.8 µg/mL (≈ 1.65 µM); with S. aureus Smith [1], 0.4 µg/mL (≈ 0.826 µM); with S. aureus A20239, greater than 100 µg/mL; against M. luteus PCI-1001, 6.3 µg/mL (≈ 13 µM); with M. flavus D-12, 1.6 µg/mL (≈ 3.3 µM); in the assay on B. subtilis ATCC6633, 0.2 µg/mL (≈ 0.413 µM). Also, the MIC was 0.4 µg/mL (≈ 0.826 µM) in the assay with B. anthracis IID-115; 0.8 µg/mL (≈ 1.65 µM) in the assay on E. coli NIHJ; 1.6 µg/mL (≈ 3.3 µM) in the assay with E. coli Juhl [2]; 0.8 µg/mL (≈ 1.65 µM) with E. coli K-12; greater than 100 µg/mL in the assay on E. coli A20664; greater than 100 µg/mL with E. coli JR35/c600. The MIC in the assay on K. pneumoniae D-11 [3] is 0.4 µg/mL (≈ 0.826 µM); in the assay on K. pneumoniae A9678, 3.1 µg/mL (≈ 6.4 µM); in the assay on E. cloacae A20364, greater than 100 µg/mL; in the assay with E. cloacae A21006 it was greater than 100 µg/mL; in the assay with P. mirabilis A9554, 0.8 µg/mL (≈ 1.65 µM); in the assay on P. vulgaris A9436 it was 0.2 µg/mL (≈ 0.413 µM). The MIC is 1.5 µg/mL (≈ 3.1 µM) against S. marcescens A20019; 50 µg/mL (≈ 103 µM) in the assay on S. marcescens A22302; 12.5 µg/mL (≈ 25.8 µM) in the assay with P. aeruginosa A9930; 6.3 µg/mL (≈ 13 µM) against P. aeruginosa A9843A; greater than 100 µg/mL in the assay with P. aeruginosa A20601; 0.2 µg/mL (≈ 0.413 µM) against Mycobacterium 607 D87. The MIC was greater than 100 µg/mL with Mycobacterium 607 D46, 0.4 µg/mL (≈ 0.826 µM) against Mycobacterium phlei and 0.2 µg/mL (≈ 0.413 µM) in the assay with Mycobacterium ranae. Besides, the zone of inhibition at 100 µg/mL with B. subtilis PCI-219 (setting [7]) is 30 mm. Besides, the zone of inhibition at 400 µg/mL in the assay on B. subtilis PCI-219 (setting [7]) stood at 34 mm. For the same compound, the ED50 in the assay on S. aureus Smith [4] came to 1.1 mg/kg; with E. coli Juhl [5], 3.5 mg/kg; in the assay with K. pneumoniae D-11 [6], 1.1 mg/kg.

For the compound `[H]/N=C(/N)N[C@H]1[C@H](O)[C@@H](O)[C@H](O[C@@H]2O[C@@H](C)[C@](O)(C=O)[C@H]2O[C@@H]2O[C@@H](CO)[C@H](O)[C@@H](O)[C@@H]2NC)[C@@H](N/C(N)=N\[H])[C@@H]1O` [streptomycin], the MIC with S. aureus 209P was 1.6 µg/mL (≈ 2.75 µM); against S. aureus Smith [1], 1.6 µg/mL (≈ 2.75 µM); in the assay on S. aureus A20239, greater than 100 µg/mL; against M. luteus PCI-1001, 3.1 µg/mL (≈ 5.33 µM); in the assay on M. flavus D-12, 0.8 µg/mL (≈ 1.38 µM); in the assay on B. subtilis ATCC6633 it was 0.8 µg/mL (≈ 1.38 µM). Besides, the MIC in the assay with B. anthracis IID-115 is 0.4 µg/mL (≈ 0.688 µM); in the assay on E. coli NIHJ, 1.6 µg/mL (≈ 2.75 µM); in the assay on E. coli Juhl [2], 3.1 µg/mL (≈ 5.33 µM); in the assay on E. coli K-12, 1.6 µg/mL (≈ 2.75 µM); in the assay with E. coli A20664, greater than 100 µg/mL; against E. coli JR35/c600, greater than 100 µg/mL. Besides, the MIC was 0.4 µg/mL (≈ 0.688 µM) with K. pneumoniae D-11 [3]; 6.3 µg/mL (≈ 10.8 µM) in the assay on K. pneumoniae A9678; greater than 100 µg/mL with E. cloacae A20364; greater than 100 µg/mL with E. cloacae A21006; 1.6 µg/mL (≈ 2.75 µM) with P. mirabilis A9554; 0.4 µg/mL (≈ 0.688 µM) in the assay on P. vulgaris A9436. In addition, the MIC was 25 µg/mL (≈ 43 µM) against S. marcescens A20019; greater than 100 µg/mL against S. marcescens A22302; greater than 100 µg/mL in the assay on P. aeruginosa A9930; greater than 100 µg/mL in the assay with P. aeruginosa A9843A; 3.1 µg/mL (≈ 5.33 µM) in the assay on P. aeruginosa A20601; 0.4 µg/mL (≈ 0.688 µM) against Mycobacterium 607 D87. Further, the MIC in the assay on Mycobacterium 607 D46 worked out at 0.4 µg/mL (≈ 0.688 µM); against Mycobacterium phlei, 0.2 µg/mL (≈ 0.344 µM); against Mycobacterium ranae it was 0.4 µg/mL (≈ 0.688 µM). The “Growth zone vs E. coli D64, hazy growth zone” value with E. coli D64 (0.06 mg/ml) was determined as 14 mm; with E. coli D64 (0.25 mg/ml), 28 mm. Also, the “Growth zone vs E. coli D64” value in the assay with E. coli D64 (0.25 mg/ml) was 17 mm. The zone of inhibition at 60 µg/mL in the assay on B. subtilis PCI-219 (setting [7]) stood at 32 mm. The zone of inhibition at 250 µg/mL in the assay on B. subtilis PCI-219 (setting [7]) stood at 35 mm. In addition, the ED50 with S. aureus Smith [4] (mice, i.m. just before challenge, S. aureus Smith, 5 days observation) turned out to be 1.9 mg/kg; in the assay on E. coli Juhl [5], 1.4 mg/kg; in the assay on K. pneumoniae D-11 [6] (mice, i.m. just before challenge, K. pneumoniae D-11, 5 days observation) it was 0.85 mg/kg.

For myomycin B, the “Growth zone vs E. coli D64, hazy growth zone” value is given as 28 mm in the assay on E. coli D64 (0.25 mg/ml) and 34 mm in the assay with E. coli D64 (1 mg/ml). In addition, the “Growth zone vs E. coli D64” value with E. coli D64 (1 mg/ml) is listed as 17 mm. Also, in the assay on E. coli D64 (result in words), the “induction/stimulation of growth of streptomycin-dependent E. coli D64” value was “stimulate the growth”. The figures for the “Inhibition zone vs B. subtilis PCI-219” value in the assay on B. subtilis PCI-219 (0.25 mg/ml) and in the assay with B. subtilis PCI-219 (1 mg/ml) were 29 mm and 34 mm, respectively.
